Reference: article PMC7481406, “Bifunctional supramolecular nanofiber inhibits atherosclerosis by enhancing plaque stability and anti-inflammation in apoE^-/- mice” (Theranostics, 2020)
Where a SMILES comes first, the peptide text is derived from it. [ ]: non-standard residue; d: D form. The star is where a group is joined. Naproxen = COc1ccc2cc([C@H](C)C(=O)*)ccc2c1; Acetyl(2-naphthyl) = O=C(Cc1ccc2ccccc2c1)*

Key:
[1] = Body weight and serum lipid profile; type: in vivo, mouse; details: for HDL-C / LDL-C / TG (triglyceride) / Total-C (serum total cholesterol): serum
Text: (§1) All animal studies were approved by the Animal Ethics Committee of Nankai University and followed the Tianjin Committee of Use and Care of Laboratory Animals. Male apoE^‑/‑ mice (~22 g bodyweight, ~8 weeks old) were purchased from the Beijing Vital River Laboratory Animal Technology Co., Ltd, which were used to set up the atherosclerotic model, as previously described. ApoE^-/- mice were randomly assigned into six groups (15 per group) and fed with HFD (21% fat plus 0.5% cholesterol; Mediscience, Ltd, Jiangsu, China; Cat No. MD12015A) for 16 weeks. […] At the end of the experiment, all mice were euthanatized by an overdose of 2,2,2-tribromoethanol (640 mg/kg, IP injection), followed by collection of aortas, blood, and peritoneal macrophages. Serum was prepared to determine levels of TNF-α, IL-1β and IL-6 by ELISA kits purchased from ABclonal, Inc. (Wuhan, China). The en face aortas were used to prepare aortic root cross sections followed by determination of en face and sinus lesions with Oil Red O staining. All the images were obtained with a microscope and quantified lesion areas in en face aorta by a computer-assisted image analysis protocol (Photoshop CS6). Necrotic core area, fibrous cap area, expression of MOMA-2, CD68, and α-SMA protein in lesion were determined by H&E and immunofluorescent staining with aortic root cross sections.

[2] = biological target: recombinant human Insulin-like Growth Factor-I Receptor (rhIGF-1R) (Homo sapiens, UniProt P08069); experiment: Microscale thermophoresis binding to rhIGF-1R; details: for dissociated constant (KD) with rhIGF-1R: microscale thermophoresis, NT-647 labelled rhIGF-1R, PBS with 0.05% Tween 20 pH 7.4, compound 0.054 nM to 2 μM
recombinant human Insulin-like Growth Factor-I Receptor (rhIGF-1R), sequence (P08069 31-1367): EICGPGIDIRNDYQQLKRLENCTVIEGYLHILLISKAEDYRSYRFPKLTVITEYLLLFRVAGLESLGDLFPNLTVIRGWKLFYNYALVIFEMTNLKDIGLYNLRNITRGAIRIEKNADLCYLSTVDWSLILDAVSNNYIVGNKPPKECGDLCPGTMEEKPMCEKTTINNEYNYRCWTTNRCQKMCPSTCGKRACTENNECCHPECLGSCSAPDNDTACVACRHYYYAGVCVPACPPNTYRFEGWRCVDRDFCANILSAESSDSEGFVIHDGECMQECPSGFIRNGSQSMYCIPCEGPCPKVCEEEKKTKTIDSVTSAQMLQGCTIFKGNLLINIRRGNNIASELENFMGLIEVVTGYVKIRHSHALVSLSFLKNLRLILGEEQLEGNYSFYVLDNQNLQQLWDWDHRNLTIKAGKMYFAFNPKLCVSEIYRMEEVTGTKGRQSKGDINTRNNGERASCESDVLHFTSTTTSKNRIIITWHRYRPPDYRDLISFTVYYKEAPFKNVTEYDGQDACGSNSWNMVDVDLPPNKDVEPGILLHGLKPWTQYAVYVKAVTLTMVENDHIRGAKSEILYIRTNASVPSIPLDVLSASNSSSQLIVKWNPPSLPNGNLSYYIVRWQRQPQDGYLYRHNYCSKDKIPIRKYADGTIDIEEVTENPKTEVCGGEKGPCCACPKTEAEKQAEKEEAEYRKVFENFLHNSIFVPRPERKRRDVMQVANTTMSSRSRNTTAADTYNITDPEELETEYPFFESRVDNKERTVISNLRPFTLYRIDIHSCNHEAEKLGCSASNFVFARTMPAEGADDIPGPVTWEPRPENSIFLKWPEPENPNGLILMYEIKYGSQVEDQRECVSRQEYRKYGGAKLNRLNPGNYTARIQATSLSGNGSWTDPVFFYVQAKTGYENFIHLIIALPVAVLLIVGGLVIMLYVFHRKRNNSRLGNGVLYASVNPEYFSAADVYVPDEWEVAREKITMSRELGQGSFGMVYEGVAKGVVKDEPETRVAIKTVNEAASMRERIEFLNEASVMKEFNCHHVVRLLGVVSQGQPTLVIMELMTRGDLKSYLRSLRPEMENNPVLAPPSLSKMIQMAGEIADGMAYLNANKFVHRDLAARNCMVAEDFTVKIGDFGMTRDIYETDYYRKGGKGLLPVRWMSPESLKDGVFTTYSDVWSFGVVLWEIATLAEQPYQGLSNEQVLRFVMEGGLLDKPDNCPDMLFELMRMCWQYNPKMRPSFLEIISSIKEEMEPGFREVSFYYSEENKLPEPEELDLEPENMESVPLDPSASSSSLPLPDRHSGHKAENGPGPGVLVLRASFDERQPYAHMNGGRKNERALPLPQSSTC
Text: (§2) The transparency of the prepared hydrogel in the visible light range of 380 nm-780 nm is detected by UV-Vis spectroscopy (Lambda 35 UV/Vis Spectrometer, Perkin-Elmer). […] Therefore, we conducted microscale thermophoresis experiments to determine their binding affinity to recombinant human Insulin-like Growth Factor-I Receptor (rhIGF-1R).
rhIGF-1R was labeled with the fluorescent dye NT-647 using a Monolith NT™ Protein Labelling Kit (cysteine-reactive) (NanoTemper Technologies, Germany). PBS buffer containing 0.05% Tween 20 (pH 7.4) was used as the assay buffer. For the interaction experiments of fluorescent proteins with Compound 1, 2, 3or 4, the concentration of labeled proteins were kept constant, while the concentration of Compound 1, 2, 3or 4 varied from 0.054 nM to 2 μM. Then, the solution of fluorescent proteins was mixed with solutions containing different concentrations of Compound 1, 2, 3or 4 at 1:1 volume ratio. After a short incubation time, the samples were loaded into MST NT.115 standard glass capillaries and the analysis was performed using the Monolith NT.115 system (NanoTemper Technologies, Germany). The KD value was calculated using the NanoTemper software package.

[3] = test system: peritoneal macrophages; experiment: Macrophage polarization and LPS-induced inflammation in vitro; type: cell-based, mouse
Procedure: (§3) Human aortic smooth muscle cells (HASMCs) were cultured in a completed DMEM F12 medium (10% fetal bovine serum, 50 μg/mL penicillin, and 50 μg/mL streptomycin). Peritoneal macrophages were cultured in complete RPMI1640 medium (10% fetal bovine serum, 50 μg/mL penicillin, 50 μg/mL streptomycin and 2 mM glutamine). HASMCs or peritoneal macrophages were seeded on a 6-well plate at the density of 3×10^5 cells per well before treatment. […] After treatment, total cellular proteins were extracted from peritoneal macrophages for determination of ABCA1 and ABCG1 by western blot, as previously described. Expression of CD68, SM22α, iNOS, CD206, TNF-α, IL-6, and IL-1β mRNA in HASMCs or macrophages was determined by quantitative real-time polymerase chain reaction (qRT-PCR) with total RNA extracted from cells and the primers listed in Table 1 and normalized to GAPDH mRNA levels in the corresponding samples.

[4] = test system: atherosclerotic lesions in apoE-/- mice; experiment: Atherosclerotic lesion formation, Oil Red O staining; type: in vivo, mouse; details: high-fat diet 16 weeks, s.c. 100 μL of 1 μM weekly, n=15
Procedure: Male apoE^‑/‑ mice (~22 g bodyweight, ~8 weeks old) were purchased from the Beijing Vital River Laboratory Animal Technology Co., Ltd, which were used to set up the atherosclerotic model, as previously described[66]. ApoE^-/- mice were randomly assigned into six groups (15 per group) and fed with HFD (21% fat plus 0.5% cholesterol; Mediscience, Ltd, Jiangsu, China; Cat No. MD12015A) for 16 weeks. ApoE^-/- mice in the different groups were subcutaneously injected with either saline (100 µL, n=15), IGF-1 protein (1 μM, 100 μL, n=15), H1 (1 μM, 100 μL, n=15), H2 (1 μM, 100 μL, n=15), H3 (1 μM, 100 μL, n=15) or H4 (1 μM, 100 μL, n=15) weekly. At the end of the experiment, all mice were euthanatized by an overdose of 2,2,2-tribromoethanol (640 mg/kg, IP injection), followed by collection of aortas, blood, and peritoneal macrophages. […] The en face aortas were used to prepare aortic root cross sections followed by determination of en face and sinus lesions with Oil Red O staining. All the images were obtained with a microscope and quantified lesion areas in en face aorta by a computer-assisted image analysis protocol (Photoshop CS6).

[5] = test system: peritoneal macrophages from apoE-/- mice; experiment: Foam cell formation, Oil Red O staining after ox-LDL; type: cell-based, mouse; details: same molar concentration, after exposure to ox-LDL, >10 lipid droplets per cell, n=5
Procedure: Human aortic smooth muscle cells (HASMCs) were cultured in a completed DMEM F12 medium (10% fetal bovine serum, 50 μg/mL penicillin, and 50 μg/mL streptomycin). Peritoneal macrophages were cultured in complete RPMI1640 medium (10% fetal bovine serum, 50 μg/mL penicillin, 50 μg/mL streptomycin and 2 mM glutamine). HASMCs or peritoneal macrophages were seeded on a 6-well plate at the density of 3×10^5 cells per well before treatment. […] To assess foam cell formation in vitro, peritoneal macrophages collected from apoE^-/- mice were plated on cover slips in 12-well plates. Subsequently, induction and determination of foam cells was conducted as previously described.

[6] = test system: peritoneal macrophage; experiment: Cholesterol efflux of peritoneal macrophage; type: cell-based, mouse; details: n=5, Figures S14 and S15B
Procedure: page 8: Figure S14. Cholesterol efflux of peritoneal macrophage were assessed after treatment as indicated, n=5. […] Figure S15. Effects of Npx and IGF-1 mimetic peptide on inflammation and cholesterol efflux. (A) qRT-PCR analysis of TNFα and IL-1β in macrophage after indicated treatment, n=5. (B) Cholesterol efflux of peritoneal macrophage were assessed after treatment as indicated, n=5. […]

[7] = test system: ABCA1 and ABCG1 in peritoneal macrophages; experiment: ABCA1 and ABCG1 expression by western blot; type: cell-based, mouse; details: 10 nM overnight, versus GAPDH, n=5
Procedure: as §3

[8] = test system: HASMCs; experiment: VSMC switch to macrophage-like phenotype (αSMA immunofluorescence, CD68 and SM22α qRT-PCR); type: cell-based, human; details: n=5
Procedure: as §3

[9] = test system: apoE-/- mice; experiment: Inflammation and macrophage phenotype in vivo (aortic root immunofluorescence, serum ELISA, aorta qRT-PCR); set-up: species or system mouse
Text: as §1

[10] = test system: receptor of IGF-1; details: earlier report of the same authors; cited from earlier work
Text: Natural and recombinant human IGF-1 proteins (rhIGF-1) are limited in short half-lifes in biological systems and poor tissue retention. […] The C domain of […] in IGF-1 regulates its receptor binding and directly affects the biological activity of IGF-1. Nishida et al. reported that the C-domain of IGF-1 can promote the healing of corneal epithelial wounds. They screened a series of 12-amino acids of GST fusion protein and obtained mutants whose various ...

[11] = Transparency of hydrogels by UV-Vis spectroscopy; type: physicochemical; details: visible light range 380 nm-780 nm, hydrogel in PBS pH 7.4, 0.5 wt%
Text: as §2

[12] = TEM of nanofibers in hydrogels; type: physicochemical; details: hydrogel in PBS, 0.5 wt%
[13] = Rheometer mechanical properties of hydrogels; type: physicochemical; details: hydrogel 1.0 wt%
Procedure: We then used a rheometer to characterize the mechanical properties of the hydrogels. […] The storage modulus (G') of the four hydrogels was approximately an order of magnitude higher than their loss modulus (G''), which indicated the formation of true gels. ApoE^-/- mice were then subcutaneously (s.c.) injected with 100 μL of the different hydrogels or natural IGF-1 protein solution per week and simultaneously fed a high-fat diet for 16 weeks. Atherosclerotic lesion formation was assessed after 16 weeks.

[14] = male apoE-/- mice, HFD 16 weeks, s.c. weekly, mean ± SD, n=15
[15] = 10 nM with ox-LDL 50 µg·mL^-1 overnight, qRT-PCR, versus ox-LDL-treated cells
[16] = peritoneal macrophages, LPS 100 ng·mL^-1 2 h then 10 nM overnight, immunofluorescent staining, versus control, n=5
[17] = double immunofluorescence staining with MOMA2, n=15

COc1ccc2cc([C@H](C)C(=O)N[C@H](Cc3ccccc3)C(=O)N[C@H](Cc3ccccc3)C(=O)NCC(=O)N[C@@H](CO)C(=O)N[C@@H](CO)C(=O)N[C@@H](CO)C(=O)N[C@@H](CCCNC(=N)N)C(=O)O)ccc2c1 [Compound H1, Npx-^DF^DFGSSSR] (Naproxen-[dF][dF]GSSSR-OH) showed a BW ([1]; mouse, in vivo, sc, SD) of 26.49 ± 2.14 g.
COc1ccc2cc([C@H](C)C(=O)N[C@@H](Cc3ccccc3)C(=O)N[C@@H](Cc3ccccc3)C(=O)NCC(=O)N[C@@H](CO)C(=O)N[C@@H](CO)C(=O)N[C@@H](CO)C(=O)N[C@@H](CCCNC(=N)N)C(=O)O)ccc2c1 [Compound H2, Npx-FFGSSSR] (Naproxen-FFGSSSR-OH) gave a BW ([1]; mouse, in vivo, sc, SD) of 25.55 ± 2.31 g.
For N=C(N)NCCC[C@H](NC(=O)[C@H](CO)NC(=O)[C@H](CO)NC(=O)[C@H](CO)NC(=O)CNC(=O)[C@H](Cc1ccccc1)NC(=O)[C@H](Cc1ccccc1)NC(=O)Cc1ccc2ccccc2c1)C(=O)O [Compound H3, Nap-FFGSSSR] ({Acetyl(2-naphthyl)}-FFGSSSR-OH), the Kd [2] was 230 nM and the BW [1, 14] was 26.79 ± 1.77 g.
In the case of COc1ccc2cc([C@H](C)C(=O)O)ccc2c1 [Npx, naproxen, reference compound], the “LPS-induced inflammation, components compared (Figure S15A)” value ([3]; macrophage in presence of LPS, qRT-PCR of TNF and IL-1, n=5) is reported as “partly blocked LPS-induced inflammation”.
For “Insulin-like growth factor (IGF)-1 [IGF-1]”, the “decrease in plaque size at the aortic root” value [4] was ~ 53%, the “reduction in lesion area, en face aorta” value [4] was ~ 42% and the “number of foam cells” value [5] was 22.0%. The “cholesterol efflux from peritoneal macrophage” value [6] was “more effective than Npx”, the “expression of ABCA1 and ABCG1 in macrophages” value [7] was “significantly enhanced expression” and the “α-SMA expression in VSMCs” value ([8]; 10 nM overnight, immunofluorescent staining, versus control) was “expressed more α-SMA”. For the same molecule, the “CD68 expression in VSMCs” value [8, 15] was “less CD68”, the “SM22α expression in VSMCs” value [8, 15] was “more SM22α” and the “Arg1 expression in macrophages in vitro” value [3, 16] was “more Arg1”. The “CCR7 expression in macrophages in vitro” value [3, 16] was “expressed less CCR7”, the “Arg1 expression in aortic root macrophages in vivo” value [9, 17] was “induced the expression of Arg1” and the “CCR7 expression in aortic root macrophages in vivo” value [9, 17] was “inhibited the expression of CCR7”. The “expression of proinflammatory cytokines in aortas” value ([9]; qRT-PCR of TNF-α and IL-6, n=8) was “reduced the expression of these cytokines”, the HDL-C [1, 14] was 2.35 ± 0.89 mM and the LDL-C [1, 14] was 4.08 ± 1.42 mM. The “TG (triglyceride)” value [1, 14] was 0.51 ± 0.13 mM, the “Total-C (serum total cholesterol)” value [1, 14] was 15.47 ± 2.76 mM and the BW ([1]; mouse, in vivo, sc, SD) was 25.04 ± 1.83 g.
For “Nap-FFGGYGSSSRRAPQT [self-assembling peptide reported earlier by the authors]”, the “binding affinity to the receptor of IGF-1” value [10] is given as “high binding affinity”.
For “Nap-FFGSRSS [Compound H4, control without naproxen and with a scrambled tetrapeptide of SSSR]”, the “dissociated constant (KD) with rhIGF-1R” value [2] was “Non KD”, the “dissociated constant (KD) with rhIGF-1R” value ([2]; listed as Compound 4) was “no binding at all” and the “transparency (mean transmittance) of hydrogel” value [11] was 71.08%. The “diameter of entangled nanofibers” value [12] was roughly 17.3 nm, the “storage modulus (G')” value [13] was 100 Pa and the “number of foam cells” value [5] was “almost no decrease”. The HDL-C [1, 14] was 2.34 ± 0.76 mM, the LDL-C [1, 14] was 4.45 ± 1.23 mM and the “TG (triglyceride)” value [1, 14] was 0.52 ± 0.08 mM. The “Total-C (serum total cholesterol)” value [1, 14] was 16.63 ± 2.05 mM and the BW ([1]; mouse, in vivo, sc, SD) was 26.81 ± 2.06 g.
